What all share (format): in vivo
The subject of one test is Phakopsora pachyrhizi. Nature of the test: Greenhouse experiments, control of soybean rust on soybean, foliar spray. The settings on record: Halo methylene benzonorbornene amide 1 gai/ha. The procedure: Control of Phakopsora pachyrhizi on Soybean
Greenhouse experiments were conducted to evaluate the ability of cis-jasmone to enhance fungicidal activity of a single agrochemical active ingredient and also of a mixture of two agrochemical active ingredients. A fungicidally active ingredient, N-[(1RS,4SR)-9-(Dichloromethylidene)-1,2,3,4-tetrahydro-1,4-methanonaphthalen-5-yl]-3-(difluoromethyl)-1-methyl-1H-pyrazole-4-carboxamide (“halo methylene benzonorbornene amide”), alone or in admixture with another fungicidally active ingredient, azoxystrobin, controls soybean rust when applied as a foliar spray. See data in Table 7.

A further test relates to Thrips Thrips Tabaci. Description: Field trial, control of thrips on cotton. The settings on record: for Average Number of Thrips per Plant: 1 foliar spray, adult thrips; for average number of thrips per plant observed across all days monitored: Day 1 to Day 22. The protocol:
Control of Thrips Thrips Tabaci on Cotton
A field trial using 21 m^2 plots, 3 replicates and 1 foliar spray was assessed for number of adult thrips/plant on Day 1, Day 3, Day 5, Day 8, Day 10, Day 15, and Day 22 after treatment. Data for untreated control are an average of four control plots.

In test [1] the test system is Currant-Lettuce Aphid Nasonova ribis-nigri. Description: Field trial, control of currant-lettuce aphid on lettuce (Example 3). To be noted: 1 foliar spray, apterous aphids. The protocol:
(§1) Control of Currant-Lettuce Aphid Nasonova ribis-nigri on Lettuce
A field trial using plots of 20 plants, 4 replicates and 1 foliar spray was assessed for number of apterous aphids/plant on Day 3, Day 7 and Day 10 after treatment.

For test [2], the system named is Aphid Aphis gossypii. Nature of the test: Field trial, control of aphid on cotton (Example 5). The settings on record: for Average Number of Aphids per Plant: 1 foliar spray, apterous adults; for average number of aphids per plant observed across all days monitored: Day 1 to Day 22. The procedure:
(§2) Control of Aphid Aphis gossypii on Cotton
A field trial using 21 m^2 plots, 3 replicates and 1 foliar spray was assessed for number of apterous adults/plant on Day 1, Day 3, Day 5, Day 8, Day 10, Day 15, and Day 22 after treatment. Data for untreated control are an average of four control plots.

For test [3], the system named is Aphid Aphis gossypii. Nature of the test: Field trial, control of aphid on cotton (Example 6). To be noted: 1 foliar spray, 8 evaluation dates from Day 3 to Day 29. The procedure:
as §2
A field trial using plots of 20 plants, 3 replicates and 1 foliar spray was assessed for number of alate and apterous aphids/plant from 8 evaluation dates from Day 3 to Day 29 after treatment. Data for untreated control are an average of four control plots (each 3 replicates; 240 total plants) which were interspersed within the treated plots.

Test [4] deals with Two Spotted Spider Mite Tetranychus urticae. Description: Field trial, control of two spotted spider mite on kidney beans. The settings on record: 2 foliar sprays at 10 day intervals, 11 evaluation dates Day 3 to Day 35. The procedure: Control of Two Spotted Spider Mite Tetranychus urticae on Kidney Beans
A field trial using a plot size of 20 m^2, 3 replicates and 2 foliar sprays at 500 I/ha at 10 day intervals was assessed for average mite population/20 leaves/plot from 11 evaluation dates from Day 3 to Day 35 after treatment.

In test [5] the test system is Currant-Lettuce Aphid Nasonova ribis-nigri. Description: Field trial, control of currant-lettuce aphid on lettuce (Example 2). The settings on record: 1 foliar spray; for Average Number of Aphids per Plant: apterous aphids. The protocol:
as §1
A field trial using plots of 20 plants, 3 replicates and 1 foliar spray was assessed for number of apterous aphids/plant and number of infected plants on Day 4, Day 8, Day 11 and Day 14 after treatment. Data for untreated control are an average of four control plots (each 3 replicates; 240 total plants) which were interspersed within the treated plots.

Setting [6] is: Cis-jasmone 50 gai/hl, Day 1 after treatment.
Setting [7] is: Cis-jasmone 50 gai/hl, Day 3 after treatment.
The mark [8] stands for this setting: Cis-jasmone 50 gai/hl, Day 5 after treatment.
Setting [9] is: Cis-jasmone 50 gai/hl, Day 8 after treatment.
[10] abbreviates: Cis-jasmone 50 gai/hl, Day 10 after treatment.
The mark [11] stands for this setting: Cis-jasmone 50 gai/hl, Day 15 after treatment.
Setting [12] is: Cis-jasmone 50 gai/hl, Day 22 after treatment.
[13] abbreviates: Cis-jasmone 50 gai/hl, Day 4 after treatment.
[14] abbreviates: Cis-jasmone 50 gai/hl, Day 11 after treatment.
[15] abbreviates: Cis-jasmone 50 gai/hl, Day 14 after treatment.
The mark [16] stands for this setting: Thiamethoxam 30 gai/hl, Day 1 after treatment.
Setting [17] is: Thiamethoxam 30 gai/hl, Day 3 after treatment.
[18] abbreviates: Thiamethoxam 30 gai/hl, Day 5 after treatment.
Where [19] appears, read: Thiamethoxam 30 gai/hl, Day 8 after treatment.
[20] abbreviates: Thiamethoxam 30 gai/hl, Day 10 after treatment.
The mark [21] stands for this setting: Thiamethoxam 30 gai/hl, Day 15 after treatment.
Where [22] appears, read: Thiamethoxam 30 gai/hl, Day 22 after treatment.
The mark [23] stands for this setting: Thiamethoxam 30 gai/hl, Day 4 after treatment.
Where [24] appears, read: Thiamethoxam 30 gai/hl, Day 11 after treatment.
[25] abbreviates: Thiamethoxam 30 gai/hl, Day 14 after treatment.

Regarding `Cn1cc(C(=O)Nc2cccc3c2[C@@H]2CC[C@H]3C2=C(Cl)Cl)c(C(F)F)n1` (racemic) [Halo methylene benzonorbornene amide, N-[(1RS,4SR)-9-(Dichloromethylidene)-1,2,3,4-tetrahydro-1,4-methanonaphthalen-5-yl]-3-(difluoromethyl)-1-methyl-1H-pyrazole-4-carboxamide], in the test with Phakopsora pachyrhizi, the “Percentage Fungicidal Activity” value is reported as 20%.

On to `CC/C=C\CC1=C(C)CCC1=O` [Cis-jasmone, cis-jasmone], for which the “Average Number of Thrips per Plant” value in the test on Thrips Thrips Tabaci (setting [6]) is listed as 24; in the test on Thrips Thrips Tabaci (setting [7]), 19; with Thrips Thrips Tabaci (setting [8]) it was 28; in the test with Thrips Thrips Tabaci (setting [9]), 48; in the test on Thrips Thrips Tabaci (setting [10]) it was 58; in the test on Thrips Thrips Tabaci (setting [11]), 65. Also, the “Average Number of Thrips per Plant” value with Thrips Thrips Tabaci (setting [12]) is 32. Further, the “average number of thrips per plant observed across all days monitored” value with Thrips Thrips Tabaci (Cis-jasmone 50 gai/hl) came out at 39. Further, the “Average Number of Aphids per Plant” value was found to be 2.963 in test [1] (Cis-jasmone at 100 gai/hl, Day 3 after treatment); 6.563 in test [1] (Cis-jasmone at 100 gai/hl, Day 7 after treatment); 12.375 in test [1] (Cis-jasmone at 100 gai/hl, Day 10 after treatment); 40 in the test on Aphid Aphis gossypii [2] (setting [6]); 33 in the test on Aphid Aphis gossypii [2] (setting [7]); 45 with Aphid Aphis gossypii [2] (setting [8]). The “Average Number of Aphids per Plant” value amounted to 126 in the test on Aphid Aphis gossypii [2] (setting [9]); 139 in the test with Aphid Aphis gossypii [2] (setting [10]); 27 with Aphid Aphis gossypii [2] (setting [11]); 14 in the test on Aphid Aphis gossypii [2] (setting [12]); 0.57 in test [5] (setting [13]); 3.28 in test [5] (setting [9]). For the same compound, the “Average Number of Aphids per Plant” value in test [5] (setting [14]) came out at 8.02; in test [5] (setting [15]), 19.25. For the same compound, in the test with Aphid Aphis gossypii [2] (Cis-jasmone 50 gai/hl), the “average number of aphids per plant observed across all days monitored” value worked out at 61. In the test with Aphid Aphis gossypii [3] (Cis-Jasmone 50 gai/hl), the “Average Number of Aphids/Plant, Alate” value was determined as 18. For the same compound, the “Average Number of Aphids/Plant, Apterous” value with Aphid Aphis gossypii [3] (Cis-Jasmone 50 gai/hl) was determined as 260. Besides, the “% pest control versus untreated check” value in test [4] (Cis-jasmone 5 gai/hl, mite population/20 leaves/plot) came out at 51.00%. Moreover, the “Number of Infested Plants (out of 60)” value in test [5] (setting [13]) came to 21; in test [5] (setting [9]) it was 48; in test [5] (setting [14]), 59; in test [5] (setting [15]), 60.

Regarding `CNC(=O)c1cc(C#N)cc(C)c1NC(=O)c1cc(Br)nn1-c1ncccc1Cl` [Cyantraniliprole, cyantraniliprole], in the test on Aphid Aphis gossypii [3] (Cyantraniliprole 100 gai/hl), the “Average Number of Aphids/Plant, Alate” value was 17 and the “Average Number of Aphids/Plant, Apterous” value is 235. In the test with Aphid Aphis gossypii [3] (Cyantraniliprole 200 gai/hl), the “Average Number of Aphids/Plant, Alate” value was 16 and the “Average Number of Aphids/Plant, Apterous” value was 179.

With `CN1COCN(Cc2cnc(Cl)s2)/C1=N\[N+](=O)[O-]` [Thiamethoxam, thiamethoxam], the “Average Number of Thrips per Plant” value turned out to be 31 with Thrips Thrips Tabaci (setting [16]); 17 with Thrips Thrips Tabaci (setting [17]); 27 in the test with Thrips Thrips Tabaci (setting [18]); 15 in the test on Thrips Thrips Tabaci (setting [19]); 27 in the test with Thrips Thrips Tabaci (setting [20]); 52 in the test on Thrips Thrips Tabaci (setting [21]). Besides, the “Average Number of Thrips per Plant” value in the test with Thrips Thrips Tabaci (setting [22]) was 29. Moreover, in the test with Thrips Thrips Tabaci (Thiamethoxam 30 gai/hl), the “average number of thrips per plant observed across all days monitored” value is recorded as 28. The “Average Number of Aphids per Plant” value stood at 0.063 in test [1] (Thiamethoxam at 25 gai/hl, Day 3 after treatment); 0.788 in test [1] (Thiamethoxam at 25 gai/hl, Day 7 after treatment); 4.813 in test [1] (Thiamethoxam at 25 gai/hl, Day 10 after treatment); 41 with Aphid Aphis gossypii [2] (setting [16]); 20 in the test with Aphid Aphis gossypii [2] (setting [17]); 23 with Aphid Aphis gossypii [2] (setting [18]). In addition, the “Average Number of Aphids per Plant” value with Aphid Aphis gossypii [2] (setting [19]) is on record as 26; with Aphid Aphis gossypii [2] (setting [20]), 33; in the test on Aphid Aphis gossypii [2] (setting [21]), 20; with Aphid Aphis gossypii [2] (setting [22]), 10; in test [5] (setting [23]), 0.05; in test [5] (setting [19]) it was 0.12. The “Average Number of Aphids per Plant” value stood at 1 in test [5] (setting [24]) and 2.25 in test [5] (setting [25]). In the test with Aphid Aphis gossypii [2] (Thiamethoxam 30 gai/hl), the “average number of aphids per plant observed across all days monitored” value was found to be 25. In addition, the “Number of Infested Plants (out of 60)” value is on record as 1 in test [5] (setting [23]), 3 in test [5] (setting [19]), 15 in test [5] (setting [24]) and 22 in test [5] (setting [25]).

For abamectin, the “% pest control versus untreated check” value was determined as 41.22% in test [4] (Abamectin 0.45 gai/hl) and 56.56% in test [4] (Abamectin 0.9 g active ingredient/hl).

These data come from patent publication US20150313215A1, “PESTICIDAL MIXTURES” (priority 2010, published 2015).
